# Measurements as given in US10632208B2, “Peptide-mediated drug delivery across epithelial barrier” (Purdue Research Foundation, priority 2017, dated 2020).
# “Also recorded” adds a separate entry of the source.
# What was measured:
# [1] = system: L. monocytogenes; test: Translocation of L. monocytogenes through polarized Caco-2 monolayers on Transwell filter-inserts; format: cell-based, Listeria monocytogenes; settings: for effect on translocation of the lap strain: 30 min pretreatment, BAY 10 μM or PDTC 100 μM
# Protocol: Caco-2 cells were grown as monolayers on Transwell inserts with 3.0 μm pores (Corning-Costar) for up to 14-21 days. TEER was measured to monitor the monolayer integrity (Millicells Voltmeter, Millipore). A TEER value of at least 200 Ω/cm^2 (±10) was used as the basal value to monitor the monolayer integrity. Bacterial cells were washed three times in PBS and resuspended in DMEM-FBS (10%) at a MOI of ˜50 and were added to the apical side of the Transwell system, and after 2 h incubation period at 37° C. in 5% CO2, the liquid was collected from the basal well, and then translocated bacteria were enumerated by plating (Burkholder and Bhunia, 2010). For analysis of FD4 flux, non-metabolizable 4 kDa FITC-labeled dextran (FD4; 5 mg/ml, Sigma-Aldrich) was added with bacteria (MOI, ˜50) resuspended in DMEM-FBS (10%) and added to the apical side. After 2 h incubation at 37° C. in 5% CO2, the liquid was collected from the basal well and fluorescence was measured (Em: 485 nm; Ex: 520 nm; Spectramax, Molecular Devices). For pharmacological inhibition treatments, PDTC (100 μM for 30 min pre-treatment; R&D Systems), Bay-11-7085 (10 μM for 30 min pre-treatment; Sigma-Aldrich), ML-9 (20 μM for 30 min pre-treatment; Sigma-Aldrich), PIK (150 μM, 30 min-pre-treatment and kept during 2-h infection) (Zolotarevsky et al., 2002), and Cytochalasin D (1 μg/mL for 1 h; Sigma-Aldrich) were used separately.
# For re-association of externally added LAP to the lap^− mutant, bacteria were harvested from 1 ml of overnight grown culture, and the pellet was washed three times in PBS before the addition of 1 or 2 μg/mL of purified LAP. The mixture was incubated for 30 min at 30° C. with continuous shaking and then pelleted, washed five times in the PBS, resuspended in DMEM, and used in the aforementioned translocation assay.
# [2] = system: L. monocytogenes; test: Intracellular invasion of L. monocytogenes in Caco-2 cells (gentamicin protection); format: cell-based, Listeria monocytogenes
# Protocol: For bacterial invasion analysis, monolayers were washed with PBS after 1 h of infection (MOI, ˜50) and incubated with DMEM-FBS (10%) containing gentamicin (50 μg/mL) for 1 h. Caco-2 cells were lysed with 0.1% Triton X, and the internalized bacteria were enumerated by plating.
# [3] = system: Caco-2 cell monolayers; test: Transepithelial electrical resistance (TEER) of Caco-2 monolayers on Transwell inserts; format: cell-based, human; settings: for effect on Caco-2 TEER in LAP-treated cells: BAY 10 μM or PDTC 100 μM
# [4] = system: NF-κB(p65); test: Immunoblot of NF-κB activation in Caco-2 cytoplasmic and nuclear extracts; format: cell-based, human; settings: BAY 10 μM or PDTC 100 μM, Caco-2 cells
# Protocol: (§1) To extract the proteins from Caco-2 cells, cells were seeded in 6-well plates for 14-21 days. Following treatment, the cells were washed, scraped from the bottom of 6-well plates, suspended in PBS, and pelleted by centrifugation. Total protein from Caco-2 cells was extracted using the M-PER Extraction Kit (Thermo Fisher Scientific). Detergent-insoluble (membrane) and detergent-soluble (cytosolic) proteins were isolated using a Mem-Per Eukaryotic Protein Extraction Kit (Thermo Fisher Scientific) while the cytosolic and nuclear proteins were extracted using NE-PER Extraction Reagent (Thermo Fisher Scientific). To extract proteins from ileal epithelial cells, the epithelial cell fraction from ileal tissues were isolated as described above and the detergent-insoluble and the detergent-soluble proteins were isolated using a Mem-Per Eukaryotic Protein Extraction Kit.
# To extract total protein from intact bacterial cells, sample solvent buffer and sonication (3 cycles of […]) were used. To isolate the cell wall-associated proteins bacterial pellets were resuspended in 0.5 ml protein extraction buffer (0.5% SDS, 10 mM Tris at pH 6.9), and incubated at 37° C. for 30 min with agitation. The samples were centrifuged (14,000×g, 10 min, 4° C.), and the supernatants (containing cell wall-associated proteins) were retained. Halt proteases and phosphatase inhibitors (Thermo Fisher Scientific) were used during all of the protein extraction procedures. The protein concentrations were determined by BCA assay (Thermo Fisher Scientific), and separated on SDS-PAGE gels (10-12.5% polyacrylamide) and electro-transferred to polyvinylidene difluoride (PVDF) membrane (Millipore). The membranes were then blocked in 5% nonfat dry milk (NFDM) in 0.1 M Tris-buffered saline, pH 7.5 (TBS) containing 0.1% Tween 20 (TBST) for at least 1 h. All of the primary antibodies were diluted in 5% bovine serum albumin (BSA) or 5% NFDM in TBST and incubated overnight. Secondary antibodies (1:2000 in 5% NFDM in TBST) incubated for 1 h at 37° C., and a chemiluminescence method was performed using LumiGLO reagent (Cell Signaling). The membranes were exposed to X-ray films or visualized using the Chemi-Doc XRS system (Bio-Rad). To immunoprobe the same membrane with another antibody, the originally bound antibodies from the membranes were removed by incubating the membranes in Restore Western Blot Stripping Buffer (Thermo Fisher Scientific) according to the manufacturer's protocol. To compare the reaction intensities, the average band densities were determined using Quantity One software (Bio-Rad). Densitometry reports represent the mean±SEM after normalization to the loading control and is presented as % change of protein with the average for untreated cells (control) set at 100%. Immunoblots and densitometric reports are representative of 2-3 independent experiments.
# [5] = system: MLCK; test: Immunoblot of MLCK and P-MLC in whole-cell Caco-2 lysates; format: cell-based, human; settings: pre-treatment prior to infection with WT strain, relative to uninfected cells
# Protocol: as §1
# (§2) To extract total protein from intact bacterial cells, sample solvent buffer and sonication (3 cycles of 20 min each) were used. […] The protein concentrations were determined by BCA assay (Thermo Fisher Scientific), and separated on SDS-PAGE gels (10-12.5% polyacrylamide) and electro-transferred to polyvinylidene difluoride (PVDF) membrane (Millipore). […] To compare the reaction intensities, the average band densities were determined using Quantity One software (Bio-Rad). […]
# [6] = system: occludin, claudin-1 and E-cadherin; test: Immunoblot of junctional proteins in detergent-insoluble fraction of Caco-2 cells; format: cell-based, human
# Protocol: as §1, §2
Compound,"effect on translocation of WT and ΔinlA strains ([1]; PIK 150 μM or ML-9 20 μM, MOI 50)",effect on intracellular invasion of the WT strain [2],effect of the inhibitor alone on Caco-2 TEER [3],increase of translocation of WT ([1]; cytochalasin D 1 μg/mL for 1 h),effect on Caco-2 TEER in LAP-treated cells [3],effect on translocation of the lap strain [1],effect on LAP-mediated NF-κB activation [4],levels of MLCK and P-MLC in whole cell lysate [5],effect of the inhibitor alone on expression of junctional proteins [6],"effect on L. monocytogenes-induced redistribution of occludin, claudin-1 and E-cadherin ([6]; PIK 150 μM or BAY 10 μM, 30 min, prior to WT infection (MOI 50, 45 min))"
O=S(=O)(c1cccc2c(Cl)cccc12)N1CCCNCC1 [ML-9],significantly reduced,"none of these inhibitors, affected the intracellular invasion capabilities",,,,,,,,
C=C1[C@@H](C)[C@H]2[C@H](Cc3ccccc3)NC(=O)[C@]23[C@H](OC(C)=O)/C=C/[C@@](C)(O)C(=O)[C@@H](C)C/C=C/[C@H]3[C@@H]1O [Cytochalasin D],,low,very low,approximately 2.5 fold,,,,,,
"CC(C)(C)c1ccc(S(=O)(=O)/C=C/C#N)cc1 [BAY, BAY 11-7085]",,did not affect,,,restored,no apparent effect,inhibited,unchanged levels,no effect,prevented; also recorded: Restoration
"S=C(S)N1CCCC1 [PDTC, pyrrolidine dithiocarbamate]",,did not affect,did not affect,,restored,no apparent effect,inhibited,,,
